Test results from patent publication US7381540B2, “Composition for measuring glucose having improved substrate specificity” (Toyo Boseki Kabushiki Kaisha, priority 2005, dated 2008).

Legend:
modified PQQGDH [1] = assay: Maltose activity of glucose electrode loaded with modified PQQGDH (oxidation current, potassium ferricyanide mediator); format: biochemical, Acinetobacter baumannii strain NCIMB11517; details: for Maltose Activity (%): solute 50 mM, pH 5.5, glucose or maltose 4 mM, 0.1 M potassium ferricyanide, +0.35 V, 25° C.; for Maltose Activity of Glucose Electrode: 50 mM solvent, 1 mM calcium chloride, 0.1% Triton X-100
Protocol: 0.5 g of carbon graphite were placed in a mortar followed by the addition of 0.3 ml of liquid paraffin and kneading with a pestle for 30 minutes to produce a carbon paste. The resulting carbon paste was spread onto a platinum electrode followed by the addition of 10 μl of the modified PQQGDH solution (2,000 U/ml) produced in Example 2 and air drying for 30 minutes at room temperature. A cut cellulose semi-permeable membrane (molecular weight: 8,000) was placed over the dried enzyme electrode and the semi-permeable membrane was immobilized with plastic O-rings. The glucose electrode produced in this manner was then used after preliminarily immersing in the cold reaction solvent for 30 minutes.
The substances listed in Table 1 were used as solutes, and buffers were respectively prepared having a final concentration of 50 mM (pH 5.5). Each of the solvents contained an activator/stabilizer in the form of calcium chloride at 1 mM and surfactant in the form of 0.1% Triton X-100 in addition to the solute listed in Table 1. Potassium ferricyanide was dissolved in each of the produced solvents to a concentration of 0.1 M to prepare reaction solutions.
50 mM phosphoric acid or pimeric acid solution containing 1 mM calcium chloride and 0.1% Triton X-100 (consisting of three types having pH values of 5.0, 6.0 and 7.0, respectively) were prepared. Maltose activity of the glucose electrode was investigated for each according to the method of Example 5.

modified PQQGDH [2] = assay: Substrate specificity using glucose assay system (ferricyanide reduction, absorbance 420 nm); format: biochemical; details: for activity with respect to maltose compared with the control (in words): substrate concentration of 4.8 mM, in some cases
Protocol: D-glucose+ferricyanide ion+PQQGDH D-glucono-1,5-lactone+ferrocyanide ion
Specificity to each substrate can be determined by changing D-glucose to other saccharides. The presence of the ferrocyanide ion produced by reduction of the ferricyanide ion was confirmed by measuring the decrease of absorbance at a wavelength of 420 nm by spectrophotometry.
A. […]
B. Potassium ferricyanide solution: 50 mM (0.165 g potassium ferricyanide (molecular weight: 329.25) dissolved in 10 ml of distilled water)
C. PQQGDH solution: 31000 U/ml (approx. 128 mg PQQGDH (Toyobo: GLD-331) dissolved in 5 ml of distilled water)
D. Substrate solution (D-glucose solution or maltose solution): 100 or 400 mM
• 1. The following reaction mixture was prepared in a light shielding bottle, and stored on ice (prepared at use). 48.2 mL of each buffer solution (pH6.5) (A) • 4.0 mL of potassium ferricyanide solution (B) • 0.19 mL of (C) • 2. 2.65 ml of the reaction mixture and 0.3 ml of additive were placed in a test tube (plastic) and pre-warmed for 5 minutes at 37° C. • 3. 0.15 ml of substrate solution (D) were added and mixed gently. • 4. The reduction in the absorbance relative to water at 420 nm was recorded for 1 to 3 minutes with a spectrophotometer while maintaining at a temperature of 37° C., and the ΔOD per minute was calculated from the initial linear portion of the curve (ΔOD test). At the same time, the same procedure was carried out with the exception of adding distilled water instead of glucose solution followed by measurement of the blank (ΔOD blank).
The above-mentioned procedure was carried out at each of the predetermined concentrations shown in Tables 1 to 3 using as additives succinic acid, adipic acid, suberic acid, pimeric acid, potassium chloride, ammonium chloride, diammonium hydrogen citrate, malonic acid, L-lysine, taurine, 3,3-dimethylglutaric acid, malic acid, glutaric acid, calcium glycerate, amino-n-butyric acid, sodium glycolate, sodium α-ketoglutarate, fumaric acid, glycerin, glutamic acid and serine. And the procedure was also carried out for those not containing additives to assess the effects of additives.
Variation in absorbance per unit time was determined by calculating ΔOD/min(ΔOD test−ΔOD blank)
To evaluate whether activity had declined with respect to sugars other than glucose, the ΔOD/min (a) with D-glucose as the substrate solution and the ΔOD/min (b) with the other sugar in place of D-glucose as the substrate solution were measured, and the relative value ((b)/(a)×100) was calculated given 100 as the measurement value with glucose as the substrate.
In each of Tables 3 to 5, in the case the value of the ratio of measured values of maltose and glucose (maltose/glucose) relative to the control (control: no addition) is small, activity with respect to maltose during glucose measurement decreases.

modified PQQGDH [3] = assay: as above; format: biochemical; details: potassium phosphate buffer pH 7.0
[4] = glutaric acid buffer pH 7.0, reagent 0.1%, substrate 4.8 mM, control 0.86
[5] = glutaric acid buffer pH 7.0, reagent 0.1%, substrate 19.2 mM, control 0.94
[6] = glutaric acid buffer pH 7.0, reagent 1%, substrate 4.8 mM, control 0.86
[7] = glutaric acid buffer pH 7.0, reagent 1%, substrate 19.2 mM, control 0.94
[8] = potassium phosphate buffer pH 7.0, reagent 0.5%, substrate 19.2 mM, control 0.93
[9] = potassium phosphate buffer pH 7.0, reagent 1%, substrate 19.2 mM, control 0.93
[10] = reagent 0.5%, substrate 4.8 mM, control 0.85
[11] = reagent 1%, substrate 4.8 mM, control 0.85
[12] = reagent 2%, substrate 4.8 mM, control 0.85
[13] = reagent 2%, substrate 19.2 mM, control 0.93
[14] = phthalic acid buffer pH 7.0, reagent 0.05%, substrate 4.8 mM, control 0.72
[15] = phthalic acid buffer pH 7.0, reagent 0.05%, substrate 19.2 mM, control 0.75
[16] = phthalic acid buffer pH 7.0, reagent 0.1%, substrate 4.8 mM, control 0.72
[17] = phthalic acid buffer pH 7.0, reagent 0.1%, substrate 19.2 mM, control 0.75
[18] = phthalic acid buffer pH 7.0, reagent 0.2%, substrate 4.8 mM, control 0.72
[19] = phthalic acid buffer pH 7.0, reagent 0.2%, substrate 19.2 mM, control 0.75

## CC(C)(CC(=O)O)CC(=O)O [3,3-dimethylglutaric acid]
Modified PQQGDH [1]
  Maltose Activity (%): 14.9%
Modified PQQGDH [2]; [4]
  Maltose/glucose ratio: 0.56
Modified PQQGDH [2]; [5]
  Maltose/glucose ratio: 0.76
Modified PQQGDH [2]; [6]
  Maltose/glucose ratio: 0.37
Modified PQQGDH [2]; [7]
  Maltose/glucose ratio: 0.47
Modified PQQGDH [2]; [8]
  Maltose/glucose ratio: 0.82
Modified PQQGDH [2]; [9]
  Maltose/glucose ratio: 0.64
Modified PQQGDH [3]; [10]
  Maltose/glucose ratio: 0.60
Modified PQQGDH [3]; [11]
  Maltose/glucose ratio: 0.44
Modified PQQGDH [3]; [12]
  Maltose/glucose ratio: 0.41
Modified PQQGDH [3]; [13]
  Maltose/glucose ratio: 0.49

## O=C(O)CC(=O)O [Malonic acid]
Modified PQQGDH [1]
  Maltose Activity (%): 23.2%
Modified PQQGDH [2]; [6]
  Maltose/glucose ratio: 0.68
Modified PQQGDH [2]; [7]
  Maltose/glucose ratio: 0.84
Modified PQQGDH [2]; phthalic acid buffer pH 7.0, reagent 0.5%, substrate 4.8 mM, control 0.72
  Maltose/glucose ratio: 0.74
Modified PQQGDH [2]; phthalic acid buffer pH 7.0, reagent 0.5%, substrate 19.2 mM, control 0.75
  Maltose/glucose ratio: 0.58
Modified PQQGDH [2]; phthalic acid buffer pH 7.0, reagent 1%, substrate 4.8 mM, control 0.72
  Maltose/glucose ratio: 0.77
Modified PQQGDH [2]; phthalic acid buffer pH 7.0, reagent 1%, substrate 19.2 mM, control 0.75
  Maltose/glucose ratio: 0.57
Modified PQQGDH [2]; phthalic acid buffer pH 7.0, reagent 2%, substrate 4.8 mM, control 0.72
  Maltose/glucose ratio: 0.82
Modified PQQGDH [2]; phthalic acid buffer pH 7.0, reagent 2%, substrate 19.2 mM, control 0.75
  Maltose/glucose ratio: 0.63
Modified PQQGDH [2]
  activity with respect to maltose compared with the control (in words): did not decrease

## O=C(O)CCC(=O)O [Succinic acid]
Modified PQQGDH [1]
  Maltose Activity (%): 22.5%
Modified PQQGDH [2]; [4]
  Maltose/glucose ratio: 0.55
Modified PQQGDH [2]; [5]
  Maltose/glucose ratio: 0.75
Modified PQQGDH [2]; [6]
  Maltose/glucose ratio: 0.35
Modified PQQGDH [2]; [7]
  Maltose/glucose ratio: 0.52
Modified PQQGDH [2]; [14]
  Maltose/glucose ratio: 0.65
Modified PQQGDH [2]; [15]
  Maltose/glucose ratio: 0.56
Modified PQQGDH [2]; [16]
  Maltose/glucose ratio: 0.73
Modified PQQGDH [2]; [17]
  Maltose/glucose ratio: 0.57
Modified PQQGDH [2]; [18]
  Maltose/glucose ratio: 0.77
Modified PQQGDH [2]; [19]
  Maltose/glucose ratio: 0.60
Modified PQQGDH [2]; [8]
  Maltose/glucose ratio: 0.84
Modified PQQGDH [2]; [9]
  Maltose/glucose ratio: 0.62
Modified PQQGDH [2]
  activity with respect to maltose compared with the control (in words): did not decrease
Modified PQQGDH [3]; [10]
  Maltose/glucose ratio: 0.65
Modified PQQGDH [3]; [11]
  Maltose/glucose ratio: 0.47
Modified PQQGDH [3]; [12]
  Maltose/glucose ratio: 0.34
Modified PQQGDH [3]; [13]
  Maltose/glucose ratio: 0.45

## O=C(O)CCCCCC(=O)O [Pimeric acid]
Modified PQQGDH [1]; pH 5.0, 6.0, 7.0, compared with phosphoric acid
  maltose activity on lowering the pH (in words): decrease more
Modified PQQGDH [1]; pH 5.0
  Maltose Activity of Glucose Electrode: 15.2%
Modified PQQGDH [1]; pH 6.0
  Maltose Activity of Glucose Electrode: 23.8%
Modified PQQGDH [1]; pH 7.0
  Maltose Activity of Glucose Electrode: 49.1%
Modified PQQGDH [1]
  Maltose Activity (%): 23.1%
Modified PQQGDH [2]; [4]
  Maltose/glucose ratio: 0.63
Modified PQQGDH [2]; [5]
  Maltose/glucose ratio: 0.78
Modified PQQGDH [2]; [6]
  Maltose/glucose ratio: 0.39
Modified PQQGDH [2]; [7]
  Maltose/glucose ratio: 0.44
Modified PQQGDH [2]; [14]
  Maltose/glucose ratio: 0.64
Modified PQQGDH [2]; [15]
  Maltose/glucose ratio: 0.64
Modified PQQGDH [2]; [16]
  Maltose/glucose ratio: 0.71
Modified PQQGDH [2]; [17]
  Maltose/glucose ratio: 0.58
Modified PQQGDH [2]; [18]
  Maltose/glucose ratio: 0.76
Modified PQQGDH [2]; [19]
  Maltose/glucose ratio: 0.58
Modified PQQGDH [2]; [8]
  Maltose/glucose ratio: 0.86
Modified PQQGDH [2]; [9]
  Maltose/glucose ratio: 0.80
Modified PQQGDH [2]
  activity with respect to maltose compared with the control (in words): did not decrease
Modified PQQGDH [3]; [10]
  Maltose/glucose ratio: 0.71
Modified PQQGDH [3]; [11]
  Maltose/glucose ratio: 0.58
Modified PQQGDH [3]; [12]
  Maltose/glucose ratio: 0.44
Modified PQQGDH [3]; [13]
  Maltose/glucose ratio: 0.58
